Measured values from publication PMC10394814, “Discovery and evaluation of active compounds from Xuanfei Baidu formula against COVID-19 via SARS-CoV-2 M^pro” (Chinese Medicine, 2023).
pEC50: −log10 of the molar value.

Tests used:
Omicron BA.1.1 variant = assay: Antiviral activity assay (CPE) in Vero E6 cells, Omicron BA.1.1; type: cell-based, SARS-CoV-2
Omicron BA.2.3 variant = assay: Antiviral activity assay (CPE) in Vero E6 cells, Omicron BA.2.3; type: cell-based, SARS-CoV-2

Work on `Cn1cnc(Cn2c(=O)[nH]/c(=N\c3cc4cn(C)nc4cc3Cl)n(Cc3cc(F)c(F)cc3F)c2=O)n1` [S-217622, reference compound] yielded a pEC50 (Omicron BA.1.1 variant) of 6.92 and a pEC50 (Omicron BA.2.3 variant) of 6.63.
